Active and inactive are the calls of the source. The rule behind the calls is not given here.
Columns and labels:
[1] = system: HL-60; assay: Antiproliferative activity against human HL60 cells harboring wild-type FLT3 measured after 72 hrs by MTT assay; assay type: functional, cell-based; conditions: HL-60, 72 h
[2] = system: MOLM-13; assay: Induction of apoptosis in human MOLM13 cells assessed as early apoptotic cells at 100 nM after 48 hrs by Annexin V/propidium iodide staining based flow cytometry (reference value: 5.97%); assay type: functional
[3] = system: MV4-11; assay: Induction of apoptosis in human MV4-11 cells assessed as necrotic cells at 1 uM after 48 hrs by Annexin V/propidium iodide staining based flow cytometry (reference value: 0.06%); assay type: functional
[4] = system: MV4-11; assay: Antitumour activity against human MV4-11 cells xenografted in NOD/SCID mouse assessed as tumour growth inhibition at 10 mg/kg, po qd for 18 days measured on day 24 by caliper method; assay type: functional, organism-based
[5] = system: MV4-11; assay: Induction of apoptosis in human MV4-11 cells assessed as early apoptotic cells at 1 uM after 48 hrs by Annexin V/propidium iodide staining based flow cytometry (reference value: 2.76%); assay type: functional
[6] = system: MOLM-13; assay: Cell cycle arrest in human MOLM13 cells assessed as accumulation at G0/G1 phase at 3 nM after 24 hrs by propidium iodide staining-based flow cytometric analysis (reference value: 44.53%); assay type: functional
[7] = target: Receptor-type tyrosine-protein kinase FLT3 (Homo sapiens, UniProt P36888, D835Y); assay: Binding affinity to human partial length FLT3 D835Y mutant (Q580 to Y969 residues) expressed in Escherichia coli after 1 hr by qPCR analysis
[8] = system: MV4-11; assay: Induction of apoptosis in human MV4-11 cells assessed as late apoptotic cells at 10 uM after 48 hrs by Annexin V/propidium iodide staining based flow cytometry (reference value: 2.83%); assay type: functional
[9] = system: MV4-11; assay: Induction of apoptosis in human MV4-11 cells assessed as viable cells at 1 uM after 48 hrs by Annexin V/propidium iodide staining based flow cytometry (reference value: 94.4%); assay type: functional; conditions: MV4-11, 48 h, read-out: Activity
[10] = system: MOLM-13; assay: Cell cycle arrest in human MOLM13 cells assessed as accumulation at S phase at 10 nM after 24 hrs by propidium iodide staining-based flow cytometric analysis (reference value: 41.95%); assay type: functional
[11] = species: Homo sapiens; assay: Selectivity ratio of IC50 for recombinant human c-Kit (544 to end residues) to IC50 for recombinant human FLT3 (564 to end residues)
[12] = system: MOLM-13; assay: Induction of apoptosis in human MOLM13 cells assessed as late apoptotic cells at 10 uM after 48 hrs by Annexin V/propidium iodide staining based flow cytometry (reference value: 5.52%); assay type: functional
[13] = system: MOLM-13; assay: Induction of apoptosis in human MOLM13 cells assessed as late apoptotic cells at 1 uM after 48 hrs by Annexin V/propidium iodide staining based flow cytometry (reference value: 5.52%); assay type: functional
[14] = system: MV4-11; assay: Cell cycle arrest in human MV4-11 cells assessed as accumulation at S phase at 1 nM after 24 hrs by propidium iodide staining-based flow cytometric analysis (reference value: 30.12%); assay type: functional
[15] = system: MOLM-13; assay: Cell cycle arrest in human MOLM13 cells assessed as accumulation at G0/G1 phase at 10 nM after 24 hrs by propidium iodide staining-based flow cytometric analysis (reference value: 44.53%); assay type: functional
[16] = system: MOLM-13; assay: Induction of apoptosis in human MOLM13 cells assessed as viable cells at 10 uM after 48 hrs by Annexin V/propidium iodide staining based flow cytometry (reference value: 88.2%); assay type: functional; conditions: MOLM-13, 48 h, read-out: Activity
[17] = system: BaF3; assay: cells; conditions: Mus musculus, BaF3, 72 h
Description: Antiproliferative activity against mouse BAF3 cells harboring FLT3-ITD mutant measured after 72 hrs by MTT assay

[18] = Toxicity in NOD/SCID mouse xenografted with human MV4-11 cells at 10 mg/kg, po qd for 18 days; assay type: organism-based; conditions: in vivo, 432 h
[19] = system: MV4-11; assay: Cell cycle arrest in human MV4-11 cells assessed as accumulation at G2/M phase at 1 nM after 24 hrs by propidium iodide staining-based flow cytometric analysis (reference value: 21.12%); assay type: functional
[20] = target: T1, Receptor-type tyrosine-protein kinase FLT3 (Homo sapiens, UniProt P36888); assay: Binding affinity to wild-type human partial length FLT3 (V592 to Y969 residues) expressed in Escherichia coli after 1 hr by qPCR analysis
T1 sequence (P36888 whole entry): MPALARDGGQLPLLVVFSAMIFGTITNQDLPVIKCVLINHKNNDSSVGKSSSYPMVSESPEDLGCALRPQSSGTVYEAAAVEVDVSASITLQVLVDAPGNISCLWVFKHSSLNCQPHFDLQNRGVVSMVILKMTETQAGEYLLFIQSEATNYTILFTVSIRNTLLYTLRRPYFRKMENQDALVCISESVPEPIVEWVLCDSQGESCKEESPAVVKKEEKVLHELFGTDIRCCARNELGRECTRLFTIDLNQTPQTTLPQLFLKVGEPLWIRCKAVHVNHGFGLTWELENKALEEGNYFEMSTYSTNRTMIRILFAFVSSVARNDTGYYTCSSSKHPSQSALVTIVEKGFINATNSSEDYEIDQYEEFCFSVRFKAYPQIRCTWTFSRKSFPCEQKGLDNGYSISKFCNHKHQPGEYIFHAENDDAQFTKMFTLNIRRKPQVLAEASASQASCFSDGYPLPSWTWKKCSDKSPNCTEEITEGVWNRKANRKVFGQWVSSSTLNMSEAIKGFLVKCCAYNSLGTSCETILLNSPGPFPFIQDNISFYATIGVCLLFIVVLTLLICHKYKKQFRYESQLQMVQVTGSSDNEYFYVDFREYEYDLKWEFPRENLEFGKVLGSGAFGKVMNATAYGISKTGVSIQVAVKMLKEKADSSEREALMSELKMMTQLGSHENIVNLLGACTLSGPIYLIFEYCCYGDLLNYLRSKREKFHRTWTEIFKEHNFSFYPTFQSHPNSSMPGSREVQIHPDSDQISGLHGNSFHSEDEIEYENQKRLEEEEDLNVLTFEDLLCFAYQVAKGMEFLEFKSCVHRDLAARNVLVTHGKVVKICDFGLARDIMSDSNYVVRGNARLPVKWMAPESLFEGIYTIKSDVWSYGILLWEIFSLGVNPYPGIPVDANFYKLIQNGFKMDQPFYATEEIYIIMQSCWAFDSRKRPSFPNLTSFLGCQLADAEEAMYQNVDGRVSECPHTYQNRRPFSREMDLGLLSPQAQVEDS

[21] = system: MOLM-13; assay: Induction of apoptosis in human MOLM13 cells assessed as viable cells at 100 nM after 48 hrs by Annexin V/propidium iodide staining based flow cytometry (reference value: 88.2%); assay type: functional; conditions: MOLM-13, 48 h, read-out: Activity
[22] = system: MOLM-13; assay: animal or person; conditions: Mus musculus, MOLM-13, po, read-out: TGI
Description: Antitumour activity against human MOLM13 cells xenografted in NOD/SCID mouse assessed as tumour growth inibition at 3 mg/kg, po qd for 10 days measured every two days during compound dosing by caliper method relative to control

[23] = system: Receptor-type tyrosine-protein kinase FLT3 (Homo sapiens), P36888 [UNDEFINED MUTATION]; assay: Inhibition of FLT3 ITD mutant in human MV4-11 cells assessed as ratio of phosphorylated STAT5 to beta-actin level at 30 nM after 2 hrs by Western blot analysis relative to control; assay type: cell-based
[24] = system: Receptor-type tyrosine-protein kinase FLT3 (Homo sapiens), P36888 [UNDEFINED MUTATION]; assay: Inhibition of FLT3 ITD mutant in human MV4-11 cells assessed as ratio of phosphorylated STAT5 to beta-actin level at 100 nM after 2 hrs by Western blot analysis relative to control; assay type: cell-based

With C=CCn1cc(-c2ccc(NC(=O)Nc3cc(C(C)(C)C)on3)cc2)c2c(N)ncnc21 the IC50 [1] was over 1000 nM, the Activity [2] was 15.5% and the Activity [3] was 0.32%. The TGI [4] was “inactive”, the Activity [5] was 19.9% and the Activity [6] was 83.62%. It also gave a Kd [7] of 7.78 nM, an Activity [8] of 66.4% and a viability at 1 µM [9] of 55%. It also gave an Activity [10] of 3.01%, a Ratio IC50 [11] of over 40 and an Activity [12] of 98.5%. It also gave an Activity [13] of 46.8%, an Activity [14] of 32.51% and an Activity [15] of 94.62%. For the same compound, the viability at 10 µM [16] was 0.48%, the IC50 [17] was 0.92 nM and the Activity [18] was “Non-Toxic”. For the same compound, the Activity [19] was 16.55%, the Kd [20] was 4.37 nM and the viability at 0.1 µM [21] was 62.8%. It also gave an inhibition in vivo at 3 mg/kg [22] of 94.5%, a fold change (FC) [23] of 0 and a fold change (FC) [24] of 0.
